# Measured values as given in patent EP2145877A2, “Aurora Kinase inhibitors” (Takeda Pharmaceutical Company Limited, priority 2006, dated 2008).
# Target: Aurora B/INCENP (Homo sapiens, UniProt Q96GD4)
# Test: Inhibition of AIK: Aurora B/INCENP Direct Fluorescence Polarization (IMAP) kinase assay
# Type: biochemical
# Settings: IC50 against AIK B; 10 uM ATP, 0.8 nM Aurora B/INCENP, 45 min at room temperature, FP readout; values given as bins
# Procedure: Detection of the reaction product is performed by addition of Progressive IMAP binding reagent (Molecular Devices). Reaction product may be determined quantitatively by FP using an Analyst HT plate reader (Molecular Devices) with an excitation wavelength at 485 nm and emission at 530 nm and using a Fluorescein 505 dichroic mirror.
# The assay reaction may be initiated as follows: 2 ul of (3x) 300 nM Fl-Peptide/30 uM ATP was added to each well of the plate, followed by the addition of 2 ul of (3x) inhibitor (2 fold serial dilutions for 11 data points for each inhibitor) containing 15% DMSO. Two microliters of (3x) 2.4 nM AuroraB/INCENP solution may be added to initiate the reaction (final enzyme concentration was 0.8 nM for Aurora B/INCENP). The reaction mixture may then be incubated at room temperature for 45 min, and quenched and developed by addition of 20 ul of 1 to 400 diluted Progressive IMAP binding reagent in 1x proprietary Progressive IMAP binding buffer A. Fluorescence polarization readings of the resulting reaction mixtures may be measured after a 60-minute incubation at room temperature.
# IC50 values may be calculated by non-linear curve fitting of the compound concentrations and fluorescent polarization values to the standard IC50 equation.
# Chain of Aurora B/INCENP (Q96GD4 whole entry): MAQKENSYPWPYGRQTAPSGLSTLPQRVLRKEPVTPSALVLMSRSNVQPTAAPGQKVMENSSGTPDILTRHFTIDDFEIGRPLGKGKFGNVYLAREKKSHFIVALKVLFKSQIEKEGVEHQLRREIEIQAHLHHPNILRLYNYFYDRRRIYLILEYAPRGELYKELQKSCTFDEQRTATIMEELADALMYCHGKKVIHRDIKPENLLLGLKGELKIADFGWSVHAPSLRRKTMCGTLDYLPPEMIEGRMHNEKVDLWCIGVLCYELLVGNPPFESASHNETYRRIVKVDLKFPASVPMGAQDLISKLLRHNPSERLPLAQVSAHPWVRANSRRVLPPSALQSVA
# Chain of Aurora B/INCENP (Q9NQS7 whole entry partner): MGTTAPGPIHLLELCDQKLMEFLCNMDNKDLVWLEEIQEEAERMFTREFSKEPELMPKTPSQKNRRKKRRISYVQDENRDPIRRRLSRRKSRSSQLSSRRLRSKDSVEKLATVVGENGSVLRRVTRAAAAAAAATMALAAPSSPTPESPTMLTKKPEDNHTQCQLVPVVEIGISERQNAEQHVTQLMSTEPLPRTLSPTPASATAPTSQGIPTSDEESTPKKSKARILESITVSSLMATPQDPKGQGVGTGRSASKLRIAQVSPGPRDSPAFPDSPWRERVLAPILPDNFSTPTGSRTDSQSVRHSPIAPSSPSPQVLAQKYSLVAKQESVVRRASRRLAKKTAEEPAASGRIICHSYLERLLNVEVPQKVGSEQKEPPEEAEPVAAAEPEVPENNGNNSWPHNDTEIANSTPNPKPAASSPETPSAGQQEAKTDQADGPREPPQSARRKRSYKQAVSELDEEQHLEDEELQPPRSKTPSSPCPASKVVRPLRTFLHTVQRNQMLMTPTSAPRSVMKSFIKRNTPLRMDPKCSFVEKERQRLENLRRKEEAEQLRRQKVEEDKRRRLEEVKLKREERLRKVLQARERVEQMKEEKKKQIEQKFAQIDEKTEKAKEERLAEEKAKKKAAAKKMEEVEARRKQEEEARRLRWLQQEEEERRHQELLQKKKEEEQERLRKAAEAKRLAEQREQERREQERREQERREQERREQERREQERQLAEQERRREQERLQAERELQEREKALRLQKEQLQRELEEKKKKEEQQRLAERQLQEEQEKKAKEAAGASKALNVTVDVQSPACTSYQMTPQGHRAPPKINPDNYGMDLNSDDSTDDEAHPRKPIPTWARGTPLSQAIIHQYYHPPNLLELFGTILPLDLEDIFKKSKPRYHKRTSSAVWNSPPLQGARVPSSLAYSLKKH
row,IC50 [nM],Structure (SMILES)
1,≤ 5,"CCS(=O)(=O)c1cccc(-c2ccc(OCCCN(C)C)c3[nH]c4ncc(Cl)cc4c23)c1 [Compound 220, 3-(3-chloro-5-(3-(ethylsulfonyl)phenyl)-9H-pyrido[2,3-b]indol-8-yloxy)-N,N-dimethylpropan-1-amine]"
2,≤ 5,"CCN(CCCOc1ccc(-c2cccc(S(=O)(=O)C3CC3)c2)c2c1[nH]c1ncc(Cl)cc12)CCOP(=O)(O)O [Compound 299, 2-((3-(3-chloro-5-(3-(cyclopropylsulfonyl)phenyl)-9H-pyrido[2,3-b]indol-8-yloxy)propyl)(ethyl)ammo)ethyl dihydrogen phosphate]"
3,≤ 5,"CCS(=O)(=O)c1cccc(-c2cc(C(N)=O)cc3[nH]c4ncc(C)cc4c23)c1 [Compound 128, 5-(3-Ethanesulfonyl-phenyl)-3-methyl-9H-pyrido[2,3-b]indole-7-carboxylic acid amide]"
4,≤ 5,"CCS(=O)(=O)c1cccc(-c2cc(C(=O)NCCO)c(C)c3[nH]c4ncc(C)cc4c23)c1 [Compound 101, 5-(3-(ethylsulfonyl)phenyl)-N-(2-hydroxyethyl)-3,8-dimethyl-9H-pyrido[2,3-b]indole-7-carboxamide]"
5,≤ 5,"CCS(=O)(=O)c1cccc(-c2ccc(O)c3[nH]c4ncc(C)cc4c23)c1 [Compound 158, 5-(3-(ethylsulfonyl)phenyl)-3-methyl-9H-pyrido[2,3-b]indol-8-ol]"
6,≤ 5,"CCS(=O)(=O)c1cccc(-c2ccc(OCC3CCNCC3)c3[nH]c4ncc(Cl)cc4c23)c1 [Compound 201, 3-chloro-5-(3-(ethylsulfonyl)phenyl)-8-(piperidin-4-ylmethoxy)-9H-pyrido[2,3-b]indole]"
7,≤ 5,"CCS(=O)(=O)c1cccc(-c2cc(C(=O)O)cc3[nH]c4ncc(C)cc4c23)c1 [Compound 140, 5-(3-Ethanesulfonyl-phenyl)-3-methyl-9H-pyrido[2,3-b]indole-7-carboxylic acid]"
8,≤ 5,"CCS(=O)(=O)c1cccc(-c2ccc(OC[C@H](O)CO)c3[nH]c4ncc(C)cc4c23)c1 [Compound 231, (R)-3-(5-(3-(ethylsulfonyl)phenyl)-3-methyl-9H-pyrido[2,3-b]indol-8-yloxy)propane-1,2-diol]"
9,≤ 5,"CCS(=O)(=O)c1cccc(-c2ccc(OCC3CCN(C)CC3)c3[nH]c4ncc(Cl)cc4c23)c1 [Compound 200, 3-chloro-5-(3-(ethylsulfonyl)phenyl)-8-((1-methylpiperidin-4-yl)methoxy)-9H-pyrido[2,3-b]indole]"
10,≤ 5,"CCS(=O)(=O)c1cccc(-c2cc(C(=O)NC[C@H](C)O)c(C)c3[nH]c4ncc(C)cc4c23)c1 [Compound 100, (S)-5-(3-(ethylsulfonyl)phenyl)-N-(2-hydroxypropyl)-3,8-dimethyl-9H-pyrido[2,3-b]indole-7-carboxamide]"
11,≤ 5,"CCNS(=O)(=O)c1cccc(-c2ccc(OC)c3[nH]c4ncc(C)cc4c23)c1 [Compound 170, N-ethyl-3-(8-methoxy-3-methyl-9H-pyrido[2,3-b]indol-5-yl)benzenesulfonamide]"
12,≤ 5,"CCS(=O)(=O)c1cccc(-c2cnc(OCCCO)c3[nH]c4ncc(C)cc4c23)c1 [Compound 55, 3-[5-(3-Ethanesulfonyl-phenyl)-3-methyl-9H-dipyrido[2,3-b;4',3'-d]pyrrol-8-yloxy]-propan-1-ol]"
13,≤ 5,"CCS(=O)(=O)c1cccc(-c2cnc(OCC3CCN(C)CC3)c3[nH]c4ncc(Cl)cc4c23)c1 [Compound 72, 3-Chloro-5-(3-ethanesulfonyl-phenyl)-8-(1-methyl-piperidin-4-ylmethoxy)-9H-dipyrido[2,3-b;4',3'-d]pyrrole]"
14,≤ 5,"CCS(=O)(=O)c1cccc(-c2ccc(OCCCO)c3[nH]c4ncc(C)cc4c23)c1 [Compound 217, 3-(5-(3-(ethylsulfonyl)phenyl)-3-methyl-9H-pyrido[2,3-b]indol-8-yloxy)propan-1-ol]"
15,≤ 5,"CCS(=O)(=O)c1cccc(-c2cnc(OC[C@H](C)O)c3[nH]c4ncc(C)cc4c23)c1 [Compound 62, (S)-1-[5-(3-Ethanesulfonyl-phenyl)-3-methyl-9H-dipyrido[2,3-b;4',3'-d]pyrrol-8-yloxy]-propan-2-ol]"
16,≤ 5,"CCS(=O)(=O)c1cccc(-c2ccc(OCC3CCNCC3)c3[nH]c4ncc(C)cc4c23)c1 [Compound 185, 5-(3-(ethylsulfonyl)phenyl)-3-methyl-8-(piperidin-4-ylmethoxy)-9H-pyrido[2,3-b]indole]"
17,≤ 5,"CCN(CCO)CCCOc1ccc(-c2cccc(S(=O)(=O)C3CC3)c2)c2c1[nH]c1ncc(C)cc12 [Compound 270, 2-((3-(5-(3-(cyclopropylsulfonyl)phenyl)-3-methyl-9H-pyrido[2,3-b]indol-8-yloxy)propyl)(ethyl)amino)ethanol]"
18,≤ 5,"Cc1cnc2[nH]c3c(OC[C@@H](O)CN(C)C)ccc(-c4cccc(S(=O)(=O)C5CC5)c4)c3c2c1 [Compound 313, (S)-1-(5-(3-(cyclopropylsulfonyl)phenyl)-3-methyl-9H-pyrido[2,3-b]indol-8-yloxy)-3-(dimethylamino)propan-2-ol]"
19,≤ 5,"Cc1cnc2[nH]c3c(OCCCN(C)C)ccc(-c4cccc(S(=O)(=O)C5CC5)c4)c3c2c1 [Compound 194, 3-(5-(3-(cyclopropylsulfonyl)phenyl)-3-methyl-9H-pyrido[2,3-b]indol-8-yloxy)-N,N-dimethylpropan-1-amine]"
20,≤ 5,"CCS(=O)(=O)c1cccc(-c2ccc(OCCCN(C)C)c3[nH]c4ncc(C)cc4c23)c1 [Compound 206, 3-(5-(3-(ethylsulfonyl)phenyl)-3-methyl-9H-pyrido[2,3-b]indol-8-yloxy)-N,N-dimethylpropan-1-amine]"
21,≤ 5,"CCS(=O)(=O)c1cccc(-c2cnc(Cl)c3[nH]c4ncc(C)cc4c23)c1 [Compound 40, 8-chloro-5-[3-(ethylsulfonyl)phenyl]-3-methyl-9H-pyrido[4',3':4,5]pyrrolo[2,3-b]pyridine]"
22,≤ 5,CCS(=O)(=O)c1cccc(-c2ccc(OC)c3[nH]c4ncc(C)cc4c23)c1 [Compound 157]
23,≤ 5,"CNS(=O)(=O)c1cccc(-c2ccc(C)c3[nH]c4ncc(C)cc4c23)c1 [Compound 15, 3-(3,8-dimethyl-9H-pyrido[2,3-b]indol-5-yl)-N-methylbenzenesulfonamide]"
